Reference: US20260232644A1, “Compositions Comprising an Inhibitor of Galectin-3” (University of Liverpool, priority 2023, published 2026)
Where a name gives a salt, the structure may show the parent alone.

How the values were obtained:
[1] = tested on: human melanoma ACA19 cells; assay: Galectin-3-mediated ACA19 cell adhesion to HUVECs; format: cell-based; details: Galectin-3 2 μg/ml, various concentrations
Method: (§1) HUVEC cells at 1×10^5 cells/ml in EGM medium were seeded into 24 well plates pre-inserted with 13 mm glass coverslip. The cells were incubated at 37° C. at 5% CO2 for 24 hr for monolayer formation. AGA19+ or SW620 cell suspension (5×10^5 cells/ml in DMEM) was introduced with 5 μl/ml fluorescent cell labelling solution DiL for 30 min at 37° C. The fluorescent labelled cells were washed twice with PBS and resuspended into 1×10^5 cells/ml in DMEM. The cancer cell suspension was then introduced with galectin-3 (2 μg/ml) and various concentrations of the compound inhibitors at 37° C. for 1 hr. The wells were carefully washed twice with PBS to remove the non-adhesion cells before the cells in the wells were fixed with 2% paraformaldehyde for 10 min. The glass coverslip was carefully removed from the plate, placed on a glass slide. After addition of fluorescence mounting medium containing DAPI, fluorescence labelled cells were quantified under a fluorescence microscope.

[2] = tested on: THP-1 differentiated macrophages; assay: Galectin-3-induced IL-1β secretion from macrophages (ELISA); format: cell-based; details: Galectin-3 10 μg/ml, various concentrations
Method: (§2) Effect of the compound inhibitors on secretion of pro-inflammatory cytokines from macrophages were assessed in THP-1 monocyte differentiated macrophages. THP-1 cells were induced to differentiation into macrophages by incubation with 10 ng/ml PMA for 48 h at 37° C. The culture medium was then replaced with fresh medium without or with 10 μg/ml galectin-3 and various concentrations of the compound inhibitors for 24 h at 37° C. The culture medium was collected and the concentrations of TNFα and IL-1β in the culture medium were determined by TNFα and IL-1β ELISA.

[3] = tested on: human umbilical vein endothelial cells (HUVECs); assay: Vascular cell tubule formation (angiogenesis); format: cell-based; details: Galectin-3 2 μg/ml, compound 10 μM
Method: Matrigel matrix (50 μl) was added to 96-well plates for 60 min at 37° C. to allow gel formation. HUVEC cells (1×10^5 cells/ml in 1:1 EGM/EBM2 media) was introduced to the plates without or with galectin-3 (2 μg/ml) or different concentrations of compound inhibitors for 24 hr at 37° C. Endothelial cell tube formation was examined with Laser Microscope. The total number of branching points and the sum of the lengths of tubes were measured.

[4] = target: T1, C-terminal (aa 115-250) Galectin-3 (Homo sapiens, UniProt P17931); assay: Tryptophan Fluorescence Spectroscopy (TFS) binding affinity, C-terminal Galectin-3
T1 construct: made in house; host or cells: E. coli
T1 sequence (P17931 115-250): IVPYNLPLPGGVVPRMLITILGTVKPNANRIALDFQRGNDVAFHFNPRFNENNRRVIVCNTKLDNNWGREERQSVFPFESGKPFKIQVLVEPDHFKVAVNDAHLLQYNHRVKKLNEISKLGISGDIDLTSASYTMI
Method: The binding affinity of the inhibitors to galectin-3 was determined by Intrinsic Tryptophan Fluorescence Spectroscopy (TFS) exactly as we described recently [Sindrewicz, P., et al., Intrinsic tryptophan fluorescence spectroscopy reliably determines galectin-ligand interactions. Sci Rep, 2019. 9(1): p. 11851]. The Galectin-3 concentration used was 10 μM and the inhibitor titration concentrations were from 0 to 224 μM. DMSO/control buffer (PBS with 2 mM EDTA) titrations were performed and used for background subtraction.

[5] = tested on: vascular HUVECs; assay: LDH release cytotoxicity assay, HUVECs; format: cell-based, human
Method: SW620 cells (5×10^4 cells/ml) were seeded into 96-well plate in DMEM (and incubated at 37° C. 5% CO2 for 24 hr. HUVECs (1.0×10^5 cells/ml) was seeded in EBM medium and incubated for 24-36 hr until they formed a monolayer. Compound inhibitors at different concentrations were then introduced to the cells (10× lysis buffer was included as maximum LDH activity control) for 24 hr. The culture medium was transferred to a new plate and was mixed with equal volume of reaction mixture provided in the kit for 30 min at room temperature before the absorbance was measured at 490 nm (reference 680 nm) by a spectrophotometer.

[6] = tested on: human colon cancer SW620 cells; assay: Galectin-3-mediated SW620 cell adhesion to HUVECs; format: cell-based; details: Galectin-3 2 μg/ml, various concentrations
Method: as §1

[7] = tested on: THP-1 differentiated macrophages; assay: Galectin-3-induced TNFα secretion from macrophages (ELISA); format: cell-based; details: Galectin-3 10 μg/ml, various concentrations
Method: as §2

[8] = tested on: triple-negative breast cancer MDA-MB-231 cells; assay: Triple-negative breast cancer cell adhesion to basement matrix; format: cell-based, human; details: Homo sapiens, MDA-MB-231
Method: Nanty-six well plates were coated with 50 μl Matrigel (1:30 diluted in PBS) at 37° C. for 1 hour.
Cancer cells, pre-labelled with fluorescent die DiI at 37° C. for 20 minutes, were washed twice with PBS and resuspended into 3×10^4 cells/ml in serum-free medium. The matrix-coated 96-well plates were washed twice with PBS before introduction of 100μ cell suspension with different concentrations of the inhibitors or PBS/DMSO (control) for 1 hour at 37° C. The plates were washed twice with PBS before three randomly selected Field of Views (FOVs) were recorded by fluorescence microscope and number of adhesion cells were quantified by Image J.
MDAMB-231 or PANC-1 cells were seeded into 6-well plate (2×10^5 cells) and cultured at 37° C. for 24 hour. Galectin-3 CRISPR Cas9 Knockout plasmid (2 μg) and galectin-3 HDR plasmid (2 μg) was mixed with Plasmid Transfection Medium (21 μl) for 5 minutes before addition to a mixture of lipofectamine STEM Transfection Reagent (STEM00001) (1 μl) and Plasmid Transfection Medium (25 μl) for 10 minutes at room temperature. The cells in the 6-well plates were washed and introduced with the Plasmid DNA/Lipofectamine STEM Transfection Reagent complex at 37° C. for 24 hour. The culture medium was replaced with fresh antibiotics-free medium for further 24 hour before introduction of 10 μg/mL puromycin-containing medium every three days. Successful co-transfection of the CRISPR/Cas9 KO Plasmid and HDR Plasmid was confirmed by expression of red fluorescence protein of the cells. Galectin-3 knockout in the cells was further confirmed by immunoblotting.

[9] = target: T2, Galectin-4 (Homo sapiens, UniProt P56470); assay: Galectin-4 binding to asialofetuin ELISA; details: Gal-4 5 μg/ml, ASF 20 μg/ml
T2 construct: made in house; host or cells: E. coli
T2 sequence (P56470 1-323): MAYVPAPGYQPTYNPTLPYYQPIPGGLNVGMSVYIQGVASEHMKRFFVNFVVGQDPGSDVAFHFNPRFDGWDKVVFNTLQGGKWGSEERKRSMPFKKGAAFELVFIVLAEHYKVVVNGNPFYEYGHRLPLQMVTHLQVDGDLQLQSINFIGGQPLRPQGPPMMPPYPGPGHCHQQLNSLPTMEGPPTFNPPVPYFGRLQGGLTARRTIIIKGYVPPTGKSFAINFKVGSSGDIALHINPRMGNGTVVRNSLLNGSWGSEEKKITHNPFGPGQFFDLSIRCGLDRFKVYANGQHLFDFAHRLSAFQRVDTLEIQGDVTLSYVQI
Method: Effect of the inhibitors on galectin binding to its ligand asialo fetuin (ASF) was measured by galectin ELISA. Nanty-six well plates were coated overnight with 20 μg/ml ASF in coating buffer (15 mM Na2CO3 17 mM NaHCO3 pH 9.6.). The wells were washed twice with PBS and incubated with blocking buffer (1% BSA in PBS) for 1 hr. The supernatants were removed and replaced with 5 μg/ml recombinant human galectin without or with different concentrations of the compound inhibitors or lactose in blocking buffer for 1 hr at room temperature. The wells were washed and incubated with 1 μg/ml anti-galectin antibody for 2 hr. Following addition of HRP-conjugated secondary antibody for 1 hr, FAST OPD development solution was added for 15-20 minutes. The reaction was terminated by addition of 4M sulphuric acid. The plates were read at 492 nm (reference wavelength 595 nm) by a microplate reader.

## NC1CCN(c2nc3c(cc2F)c(=O)c(C(=O)O)cn3-c2ccc(F)cc2F)C1 (centres unmarked) [Formula X, Tosufloxacin tosylate]
[1]
  Inhibition of ACA19 cell adhesion to HUVECs: dose-dependent inhibition
[2]
  Inhibition of galectin-3-induced IL-1β secretion: dose-dependent inhibition
[3]
  Inhibition of galectin-3-induced tubule numbers: significant inhibition
  Inhibition of galectin-3-induced vascular tubule length: significant inhibition
[4]
  Kd: 5 to 7 µM
[5]; at 100 μM
  Cytotoxicity to HUVEC cells (LDH release): no detectable cytotoxicity
[5]; various concentrations
  Cytotoxicity to HUVEC cells (LDH release): low cytotoxicity
[6]
  Inhibition of SW620 cell adhesion to HUVECs: dose-dependent inhibition
[7]
  Inhibition of galectin-3-induced TNFα secretion: dose-dependent inhibition
[8]
  IC50: ~10 µM
[9]
  Effect on Galectin-4 binding to asialofetuin: does not affect binding
